Measurements taken from US20240343704A1, “HALO-SUBSTITUTED AMINO PYRIDINE COMPOUNDS AS INHIBITORS OF THE HAEMATOPOIETIC PROGENITOR KINASE 1 (HPK1)” (priority 2021, published 2024).

What was measured:
[1] = target: T1, Recombinant (1-346) HPK1 (h) (Homo sapiens, UniProt Q92918); test: HPK1 Human STE Kinase Enzymatic Radiometric Assay; format: biochemical; settings: read-out: HPK1 IC50 nM Range*
T1 construct: Recombinant (1-346) HPK1 (h) is incubated with 8 mM MOPS pH 7.0
T1 sequence (Q92918 1-346): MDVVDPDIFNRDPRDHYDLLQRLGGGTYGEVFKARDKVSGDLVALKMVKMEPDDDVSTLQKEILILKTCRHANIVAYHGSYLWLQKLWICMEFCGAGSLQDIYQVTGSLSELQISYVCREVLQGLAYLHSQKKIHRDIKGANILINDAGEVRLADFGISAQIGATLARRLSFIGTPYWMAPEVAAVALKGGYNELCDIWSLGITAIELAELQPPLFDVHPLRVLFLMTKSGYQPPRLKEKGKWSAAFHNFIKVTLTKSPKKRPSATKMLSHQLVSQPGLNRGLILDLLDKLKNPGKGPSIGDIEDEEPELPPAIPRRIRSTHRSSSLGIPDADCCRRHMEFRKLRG
Description: A stock solution of 10 mM of test compound is prepared in DMSO. The compound plate was prepared by 3-fold and 9-point serial dilutions. […] The reaction is initiated by The addition of the Mg/ATP mix. After incubation for 40 minutes at RT, the reaction is stopped by the addition of phosphoric acid to a concentration of 0.5%.

[2] = target: Lck (h) (Homo sapiens, UniProt P06239); test: Lck Human  Kinase Enzymatic Radiometric Assay; format: biochemical; settings: read-out: Lck IC50 nM Range*
Chain of Lck (h) (P06239 whole entry): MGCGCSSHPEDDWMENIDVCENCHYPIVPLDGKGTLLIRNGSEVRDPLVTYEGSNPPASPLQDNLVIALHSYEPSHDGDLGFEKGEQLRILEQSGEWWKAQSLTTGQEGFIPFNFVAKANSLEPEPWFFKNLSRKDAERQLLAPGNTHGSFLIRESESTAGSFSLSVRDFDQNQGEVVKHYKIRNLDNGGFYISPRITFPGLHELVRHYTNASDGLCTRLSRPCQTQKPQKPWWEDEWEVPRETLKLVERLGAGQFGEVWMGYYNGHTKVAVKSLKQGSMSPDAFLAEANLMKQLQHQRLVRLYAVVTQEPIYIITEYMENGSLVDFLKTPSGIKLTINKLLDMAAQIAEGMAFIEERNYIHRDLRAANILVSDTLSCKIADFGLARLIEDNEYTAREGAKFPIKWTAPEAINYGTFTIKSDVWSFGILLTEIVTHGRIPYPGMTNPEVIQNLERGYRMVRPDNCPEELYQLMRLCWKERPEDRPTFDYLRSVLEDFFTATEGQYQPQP
Description: Lck (h) is incubated with 50 mM Tris pH 7.5, 0.1 mM EGTA, 0.1 mM Na3VO4, 250 uM KVEKIGEGTYGVVYK (Cdc2 peptide), 10 mM MgAcetate and [gamma-33P]-ATP (specific activity and concentration as required). The reaction is initiated by the addition of the Mg/ATP mix. After incubation for 40 minutes at RT, the reaction is stopped by the addition of phosphoric acid to a concentration of 0.5%. 10 uL of the reaction is then spotted onto a P30 filtermat and washed four times for 4 minutes in 0.425% phosphoric acid and once in methanol prior to drying and scintillation counting. For more details on the kinase assay procedures see: Gao, Y. et. al.; Biochem J., 451 (2): 313-328, 2013.

Compound | IC50 [1] [nM] | IC50 [2] [nM]
CN1C[C@H]2C[C@@]2(c2ccc(-c3cc(-c4ccc5c(c4)CCNC5=O)c(N)nc3F)cc2)C1 [I-14, 6-(2-amino-6-fluoro-5-(4-((1R,5S)-3-methyl-3-azabicyclo[3.1.0]hexan-1-yl)phenyl)pyridin-3-yl)-3,4-dihydroisoquinolin-1(2H)-one] | 0.1 to 10 | > 1000
CC(C)S(=O)(=O)c1ccc(-c2cc(-c3ccc4c(c3)CCNC4=O)c(N)nc2F)cc1 [I-15, 6-(2-amino-6-fluoro-5-(4-(isopropylsulfonyl)phenyl)pyridin-3-yl)-3,4-dihydroisoquinolin-1(2H)-one] | 0.1 to 10 | > 1000
Nc1nc(F)c(-c2ccc(N3CCNCC3)cc2)cc1-c1ccc2c(c1)CCNC2=O [I-17, 6-(2-amino-6-fluoro-5-(4-(piperazin-1-yl)phenyl)pyridin-3-yl)-3,4-dihydroisoquinolin-1(2H)-one] | 0.1 to 10 | > 1000
CN1C[C@@H]2C[C@H]1CN2c1ccc(-c2cc(-c3ccc4c(c3)CCNC4=O)c(N)nc2F)cc1 [I-18, 6-(2-amino-6-fluoro-5-(4-(5-methyl-2,5-diazabicyclo[2.2.1]heptan-2-yl)phenyl)pyridin-3-yl)-3,4-dihydroisoquinolin-1(2H)-one] | 0.1 to 10 | > 1000
Nc1nc(F)c(-c2ccc(N3CCOCC3)cc2)cc1-c1cc2c(cc1F)C(=O)NCC2 [I-19, 6-(2-amino-6-fluoro-5-(4-morpholinophenyl)pyridin-3-yl)-7-fluoro-3,4-dihydroisoquinolin-1(2H)-one] | 0.1 to 10 | > 1000
Nc1nc(F)c(-c2ccc(N3CCN(CCF)CC3)cc2)cc1-c1ccc2c(c1)CCNC2=O [I-20, 6-(2-amino-6-fluoro-5-(4-(4-(2-fluoroethyl)piperazin-1-yl)phenyl)pyridin-3-yl)-3,4-dihydroisoquinolin-1(2H)-one] | 0.1 to 10 | > 1000
Nc1nc(F)c(-c2ccc(N3CCN(CC(F)F)CC3)cc2)cc1-c1ccc2c(c1)CCNC2=O [I-21, 6-(2-amino-5-(4-(4-(2,2-difluoroethyl)piperazin-1-yl)phenyl)-6-fluoropyridin-3-yl)-3,4-dihydroisoquinolin-1(2H)-one] | 0.1 to 10 | > 1000
Nc1nc(F)c(-c2ccc(OC3CCNCC3)cc2)cc1-c1ccc2c(c1)CCNC2=O [I-22, 6-(2-amino-6-fluoro-5-(4-(piperidin-4-yloxy)phenyl)pyridin-3-yl)-3,4-dihydroisoquinolin-1(2H)-one] | 0.1 to 10 | > 1000
Nc1nc(F)c(-c2ccc(N3CCN4CCOCC4C3)cc2)cc1-c1ccc2c(c1)CCNC2=O (stereo not shown) [I-23, 6-(2-amino-6-fluoro-5-(4-(hexahydropyrazino[2,1-c][1,4]oxazin-8(1H)-yl)phenyl)pyridin-3-yl)-3,4-dihydroisoquinolin-1(2H)-one] | 0.1 to 10 | > 1000
CO[C@@H](C)CN1CCN(c2ccc(-c3cc(-c4ccc5c(c4)CCNC5=O)c(N)nc3F)cc2)CC1 [I-24, (S)-6-(2-amino-6-fluoro-5-(4-(4-(2-methoxypropyl)piperazin-1-yl)phenyl)pyridin-3-yl)-3,4-dihydroisoquinolin-1(2H)-one] | 0.1 to 10 | > 1000
CO[C@H](C)CN1CCN(c2ccc(-c3cc(-c4ccc5c(c4)CCNC5=O)c(N)nc3F)cc2)CC1 [I-25, (R)-6-(2-amino-6-fluoro-5-(4-(4-(2-methoxypropyl)piperazin-1-yl)phenyl)pyridin-3-yl)-3,4-dihydroisoquinolin-1(2H)-one] | 0.1 to 10 | > 1000
Nc1nc(F)c(-c2ccc(N3CCOCC3)cn2)cc1-c1ccc2c(c1)CCNC2=O [I-26, 6-(6′-amino-2′-fluoro-5-morpholino-[2,3′-bipyridin]-5′-yl)-3,4-dihydroisoquinolin-1(2H)-one] | 0.1 to 10 | > 1000
CN1CCN(c2ccc(-c3cc(-c4ccc5c(c4)CCNC5=O)c(N)nc3F)nc2)CC1 [I-27, 6-(6′-amino-2′-fluoro-5-(4methylpiperazin-1-yl)-[2,3′-bipyridin]-5′-yl)-3,4dihydroisoquinolin-1(2H)-one acetate] | 0.1 to 10 | > 1000
C[Si](C)(O)c1ccc(-c2cc(-c3ccc4c(c3)CCNC4=O)c(N)nc2F)cc1 [I-28, 6-(2-amino-6-fluoro-5-(4-(hydroxydimethylsilyl)phenyl)pyridin-3-yl)-3,4-dihydroisoquinolin-1(2H)-one] | 11 to 100 | > 1000
COCCN1CCN(c2ccc(-c3cc(-c4ccc5c(c4)CCNC5=O)c(N)nc3F)cc2)CC1 [I-29, 6-(2-amino-6-fluoro-5-(4-(4-(2-methoxyethyl)piperazin-1-yl)phenyl)pyridin-3-yl)-3,4-dihydroisoquinolin-1(2H)-one] | 0.1 to 10 | > 1000
Nc1nc(F)c(-c2ccc(C3CCNCC3)cc2)cc1-c1ccc2c(c1)CCNC2=O [I-30, 6-(2-amino-6-fluoro-5-(4-(piperidin-4-yl)phenyl)pyridin-3-yl)-3,4-dihydroisoquinolin-1(2H)-one] | 0.1 to 10 | > 1000
CN1CCN(c2ccc(-c3cc(-c4ccc5c(c4)CCNC5=O)c(N)nc3F)cc2)C=N1 [I-31, 6-(2-amino-6-fluoro-5-(4-(1-methyl-5,6-dihydro-1,2,4-triazin-4(1H)-yl)phenyl)pyridin-3-yl)-3,4-dihydroisoquinolin-1(2H)-one] | 0.1 to 10 | > 1000
CN1CCN(c2ccc(-c3cc(-c4ccc5c(c4)CNC5=O)c(N)nc3F)cc2)CC1 [I-32, 5-(2-amino-6-fluoro-5-(4-(4-methylpiperazin-1-yl)phenyl)pyridin-3-yl)isoindolin-1-one] | 11 to 100 | > 1000
CN1CCN(c2ccc(-c3cc(-c4ccc5c(c4)C(C)(C)NC5=O)c(N)nc3F)cc2)CC1 [I-33, 5-(2-amino-6-fluoro-5-(4-(4-Methylpiperazin-1-yl)phenyl)pyridin-3-yl)-3,3-dimethylisoindolin-1-one] | 0.1 to 10 | > 1000
CC(=O)N1CCC(Oc2ccc(-c3cc(-c4ccc5c(c4)CCNC5=O)c(N)nc3F)cc2)CC1 [I-34, 6-(5-(4-((1-acetylpiperidin-4-yl)oxy)phenyl)-2-amino-6-fluoropyridin-3-yl)-3,4-dihydroisoquinolin-1(2H)-one] | 0.1 to 10 | > 1000
Nc1nc(F)c(-c2ccc(OC3CCOCC3)cc2)cc1-c1ccc2c(c1)CCNC2=O [I-35, 6-(2-amino-6-fluoro-5-(4-((tetrahydro-2H-pyran-4-yl)oxy)phenyl)pyridin-3-yl)-3,4-dihydroisoquinolin-1(2H)-one] | 0.1 to 10 | > 1000
CN1C[C@H]2C[C@@]2(c2ccc(-c3cc(-c4ccc5c(c4)C(C)(C)NC5=O)c(N)nc3F)cc2)C1 [I-36, 5-(2-amino-6-fluoro-5-(4-((1R,5S)-3-methyl-3-azabicyclo[3.1.0]hexan-1-yl)phenyl)pyridin-3-yl)-3,3-dimethylisoindolin-1-one] | 0.1 to 10 | > 1000
CN1CCN(c2ccc(-c3cc(-c4ccc5c(c4)C(C)(C)NC5=O)c(N)nc3F)cc2)C=N1 [I-37, 5-(2-amino-6-fluoro-5-(4-(1-methyl-5,6-dihydro-1,2,4-triazin-4(1H)-yl)phenyl)pyridin-3-yl)-3,3-dimethylisoindolin-1-one 2,2,2-trifluoroacetate] | 11 to 100 | > 1000
